Data as given in patent US6858631B1, “Polymorphic, amorphous and hydrated forms of 5-chloro-3-(4-methanesulfonylphenyl)-6′-methyl-[2,3′]bipyridinyl” (Merck & Co., Inc., priority 1999, dated 2005).

Experiments:
[1] = Relative solubility of polymorphic forms; assay type: physicochemical; conditions: at temperatures below 45° C.
Description: (§1) Forms I and IV are enantiotropic with Form IV converting to Form I at temperatures greater than 45° C. when in contact with organic solvents.

[2] = Relative thermodynamic stability and interconversion of polymorphic forms; assay type: physicochemical
Description: as §1

- solubility relative to Form I [1]: slightly less soluble
- stability relative to Form I ([2]; at temperatures below 45° C.): slightly more stable
- temperature at which Form IV converts to Form I (enantiotropic) ([2]; in contact with organic solvents): greater than 45 °C
SMILES: Cc1ccc(-c2ncc(Cl)cc2-c2ccc(S(C)(=O)=O)cc2)cn1 [Form IV, 5-chloro-3-(4-methanesulfonylphenyl)-6′-methyl-[2,3′]bipyridinyl]
